Data from US12371454B2, “Cyclic peptide compound having Kras inhibitory action” (priority 2019, dated 2025).
Starred links: 1 amine or outer side, 2 acyl side, 3 side chain; linkers in the order of their positions; H or OH if unused. Positions of bridges follow the written chain, without caps; N, C: chain ends. Non-standard residues stand in square brackets, D forms with d. Residues, ends and D or L forms follow the SMILES beside them. *: point of attachment. hPhe(3,5-F2-4-CF3) = N[C@@H](CCc1cc(F)c(C(F)(F)F)c(F)c1)C(=O)O; hPhe(3-Cl-4-CF3) = N[C@@H](CCc1ccc(C(F)(F)F)c(Cl)c1)C(=O)O; NMePhe(3-CF3) = CN[C@@H](Cc1cccc(C(F)(F)F)c1)C(=O)O; NMePhe(4-CF3) = CN[C@@H](Cc1ccc(C(F)(F)F)cc1)C(=O)O; NMeAla(4-thiazolyl) = CN[C@@H](Cc1cscn1)C(=O)O; NMePhe(4-Br) = CN[C@@H](Cc1ccc(Br)cc1)C(=O)O; NMePhe(3-Me) = CN[C@@H](Cc1cccc(C)c1)C(=O)O; NMePhe(4-Me) = CN[C@@H](Cc1ccc(C)cc1)C(=O)O; NMedβ3hAla = C[C@H](CC(=O)[*:2])N(C)[*:1]; NMeAla(cPent) = CN[C@@H](CC1CCCC1)C(=O)O; NMeGly(cPent) = CN[C@H](C(=O)O)C1CCCC1; NMeCha = CN[C@@H](CC1CCCCC1)C(=O)O; NMeAhp(2) = CCCCC[C@H](NC)C(=O)O; NMeCba = CN[C@@H](CC1CCC1)C(=O)O; NMeChg = CN[C@H](C(=O)O)C1CCCCC1; NMeI = CC[C@H](C)[C@H](NC)C(=O)O; NMeD = CN[C@@H](CC(=O)O)C(=O)O; AllylGly = C=CC[C@H](N)C(=O)O; NMeL = CN[C@@H](CC(C)C)C(=O)O; NMeNle = CCCC[C@H](NC)C(=O)O; NMeNva = CCC[C@H](NC)C(=O)O; NMeV = CN[C@H](C(=O)O)C(C)C; d(β3hA) = C[C@@H](N)CC(=O)O; NMeS = CN[C@@H](CO)C(=O)O; Morpholide = C1CN(*)CCO1; NMeA = CN[C@@H](C)C(=O)O; Piperidide = C1CCN(*)CC1; Pyrrolidide = C1CCN(*)C1; Ac5c = NC1(C(=O)O)CCCC1; Aze = O=C(O)[C@@H]1CCN1; Sar = CNCC(=O)O

Experiments:
[1] = tested on: Human pancreatic cancer cell line AsPC-1; assay: Measurement of AsPC-1 cell growth inhibition (AsPC-1 CGI); type: cell-based; settings: 96 h
How it was run: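 AsPC-1 cells in 15% FBS RPMI-1640 were exposed to test compound for 96 hours at 37° C, with CellTiter-Glo as endpoint.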

[2] = molecular target: T1, Kras and SOS1 (biotin-tagged human Kras loaded with GDP, His-tagged human SOS1) (Homo sapiens, UniProt P01116, G12D); assay: Protein-protein interaction inhibition between Kras and SOS1 (KrasGl2D-SOS PPI) using AlphaScreen; type: binding; settings: AlphaScreen; biotin-tagged human Kras loaded with GDP, His-tagged human SOS1; read-out: KRAS G12D-SOS PPI IC50
T1 construct: made in house; host or cells: E. coli (stated for Kras only)
How it was run: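 Donor beads (nickel) hold His-SOS1; acceptor beads (streptavidin) hold biotin-Kras bound to GDP. Signal measured at 520-620 nm following 680 nm excitation.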

T1 sequence (P01116 1-188 isoform P01116-2 G12D): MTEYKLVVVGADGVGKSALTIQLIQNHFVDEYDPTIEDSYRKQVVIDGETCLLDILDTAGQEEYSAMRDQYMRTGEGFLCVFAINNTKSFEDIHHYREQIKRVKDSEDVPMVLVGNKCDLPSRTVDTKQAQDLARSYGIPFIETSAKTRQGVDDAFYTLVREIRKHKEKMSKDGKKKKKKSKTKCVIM

Structure (SMILES)	IC50 [1] [µM]	IC50 [2] [µM]
CCC[C@H]1C(=O)N[C@@H]([C@@H](C)CC)C(=O)N(C)CC(=O)N(C)CC(=O)N(C)[C@@H](Cc2ccc(C)cc2)C(=O)N(C)CC(=O)N[C@@H](CCc2ccc(C(F)(F)F)c(Cl)c2)C(=O)N2CCC[C@H]2C(=O)NC2(CCCC2)C(=O)N(C)[C@@H](C2CCCCC2)C(=O)N(C)[C@H](C(=O)N2CCOCC2)CC(=O)N1C [Compound 1871] ([NMeNva]I[Sar][Sar][NMePhe(4-Me)][Sar][hPhe(3-Cl-4-CF3)]P[Ac5c][NMeChg][NMeD]-Morpholide; lactam N-11)	0.02 to 0.05	0.00048
C=CC[C@@H]1NC(=O)[C@H](CC(C)C)N(C)C(=O)C[C@@H](C(=O)N2CCCCC2)N(C)C(=O)[C@H](C2CCCCC2)N(C)C(=O)C2(CCCC2)NC(=O)[C@@H]2CCCN2C(=O)[C@H](CCc2ccc(C(F)(F)F)c(Cl)c2)NC(=O)CN(C)C(=O)[C@H](CC2CCCCC2)N(C)C(=O)CN(C)C(=O)CN(C)C1=O [Compound 164] ([NMeL][AllylGly][Sar][Sar][NMeCha][Sar][hPhe(3-Cl-4-CF3)]P[Ac5c][NMeChg][NMeD]-Piperidide; lactam N-11)	0.1 to 0.5	0.0022
CC[C@H](C)[C@@H]1NC(=O)[C@H](COC)N(C)C(=O)C[C@@H](C(=O)N2CCCCC2)N(C)C(=O)[C@H](C2CCCCC2)N(C)C(=O)C2(CCCC2)NC(=O)[C@@H]2CCCN2C(=O)[C@H](CCc2ccc(C(F)(F)F)c(Cl)c2)NC(=O)CN(C)C(=O)[C@H](CC2CCCCC2)N(C)C(=O)CN(C)C(=O)CN(C)C1=O [Compound 1037] ([NMeS](Me)I[Sar][Sar][NMeCha][Sar][hPhe(3-Cl-4-CF3)]P[Ac5c][NMeChg][NMeD]-Piperidide; lactam N-11)	0.05 to 0.1	0.00066
CCCCC[C@H]1C(=O)N[C@@H]([C@@H](C)CC)C(=O)N[C@@H](C)C(=O)N2CC[C@H]2C(=O)N(C)[C@@H](C2CCCC2)C(=O)N(C)CC(=O)N[C@@H](CCc2ccc(C(F)(F)F)c(Cl)c2)C(=O)N2CCC[C@H]2C(=O)NC2(CCCC2)C(=O)N(C)[C@@H](C2CCCC2)C(=O)N(C)[C@H](C(=O)N2CCOCC2)CC(=O)N1C [Compound 11] ([NMeAhp(2)]IA[Aze][NMeGly(cPent)][Sar][hPhe(3-Cl-4-CF3)]P[Ac5c][NMeGly(cPent)][NMeD]-Morpholide; lactam N-11)	0.05 to 0.1	0.0015
CC[C@H](C)[C@@H]1NC(=O)[C@H](CC(C)C)N(C)C(=O)C[C@@H](C)N(C)C(=O)[C@H](C(C)C)N(C)C(=O)C2(CCCC2)NC(=O)[C@@H]2CCCN2C(=O)[C@H](CCc2ccc(C(F)(F)F)c(Cl)c2)NC(=O)CN(C)C(=O)[C@H](Cc2cccc(C(F)(F)F)c2)N(C)C(=O)CN(C)C(=O)CN(C)C1=O [Compound 1572] (cyclo([Ac5c][NMeV][NMedβ3hAla][NMeL]I[Sar][Sar][NMePhe(3-CF3)][Sar][hPhe(3-Cl-4-CF3)]P))	0.05 to 0.1	0.0098
CC[C@H](C)[C@@H]1NC(=O)[C@H](CC(C)C)N(C)C(=O)C[C@@H](C(=O)N(C)C)N(C)C(=O)[C@H]([C@@H](C)CC)N(C)C(=O)C2(CCCC2)NC(=O)[C@H](Cc2cccc(C)c2)N(C)C(=O)[C@H](CCc2ccc(C(F)(F)F)c(Cl)c2)NC(=O)CN(C)C(=O)[C@H](Cc2ccc(C)cc2)N(C)C(=O)[C@@H]2CCN2C(=O)[C@H](C)N(C)C1=O [Compound 912] ([NMeL]I[NMeA][Aze][NMePhe(4-Me)][Sar][hPhe(3-Cl-4-CF3)][NMePhe(3-Me)][Ac5c][NMeI][NMeD]-NMe2; lactam N-11)	0.05 to 0.1	0.012
CC[C@H](C)[C@@H]1NC(=O)[C@H](CC(C)C)N(C)C(=O)C[C@@H](C(=O)N2CCCCC2)N(C)C(=O)[C@H](C(C)C)N(C)C(=O)C2(CCCC2)NC(=O)[C@@H]2CCCN2C(=O)[C@H](CCc2ccc(C(F)(F)F)c(Cl)c2)NC(=O)CN(C)C(=O)[C@H]([C@@H](C)CC)N(C)C(=O)[C@@H]2CCN2C(=O)[C@H](C)N(C)C1=O [Compound 1684] ([NMeL]I[NMeA][Aze][NMeI][Sar][hPhe(3-Cl-4-CF3)]P[Ac5c][NMeV][NMeD]-Piperidide; lactam N-11)	0.1 to 0.5	0.0043
CCCC[C@H]1C(=O)N(C)CC(=O)N[C@@H](CCc2ccc(C(F)(F)F)c(Cl)c2)C(=O)N2CCC[C@H]2C(=O)NC2(CCCC2)C(=O)N(C)[C@@H](C2CCCCC2)C(=O)N(C)[C@H](C(=O)N2CCCCC2)CC(=O)N(C)[C@@H](CC(C)C)C(=O)N[C@@H]([C@@H](C)CC)C(=O)N(C)CC(=O)N(C)CC(=O)N1C [Compound 1832] ([NMeL]I[Sar][Sar][NMeNle][Sar][hPhe(3-Cl-4-CF3)]P[Ac5c][NMeChg][NMeD]-Piperidide; lactam N-11)	0.1 to 0.5	0.001
CC[C@H](C)[C@@H]1NC(=O)[C@H](CC(C)C)N(C)C(=O)C[C@@H](C)NC(=O)[C@H](C(C)C)N(C)C(=O)C2(CCCC2)NC(=O)[C@@H]2CCCN2C(=O)[C@H](CCc2ccc(C(F)(F)F)c(Cl)c2)NC(=O)CN(C)C(=O)[C@H](Cc2ccc(C(F)(F)F)cc2)N(C)C(=O)CN(C)C(=O)CN(C)C1=O [Compound 1620] (cyclo([Ac5c][NMeV][d(β3hA)][NMeL]I[Sar][Sar][NMePhe(4-CF3)][Sar][hPhe(3-Cl-4-CF3)]P))	0.05 to 0.1	0.0054
CC[C@H](C)[C@@H]1NC(=O)[C@H](CC(C)C)N(C)C(=O)C[C@@H](C(=O)N2CCCCC2)N(C)C(=O)[C@H](C(C)C)N(C)C(=O)C2(CCCC2)NC(=O)[C@@H]2CCCN2C(=O)[C@H](CCc2ccc(C(F)(F)F)c(Cl)c2)NC(=O)CN(C)C(=O)[C@H](Cc2ccc(Br)cc2)N(C)C(=O)CN(C)C(=O)CN(C)C1=O [Compound 1576] ([NMeL]I[Sar][Sar][NMePhe(4-Br)][Sar][hPhe(3-Cl-4-CF3)]P[Ac5c][NMeV][NMeD]-Piperidide; lactam N-11)	0.1 to 0.5	0.0051
CC[C@H](C)[C@@H]1NC(=O)[C@H](CC(C)C)N(C)C(=O)C[C@@H](C(=O)N(C)C)N(C)C(=O)[C@H]([C@@H](C)CC)N(C)C(=O)C2(CCCC2)NC(=O)[C@H](Cc2cscn2)N(C)C(=O)[C@H](CCc2ccc(C(F)(F)F)c(Cl)c2)NC(=O)CN(C)C(=O)[C@H](Cc2ccc(C)cc2)N(C)C(=O)[C@@H]2CCN2C(=O)[C@H](C)N(C)C1=O [Compound 441] ([NMeL]I[NMeA][Aze][NMePhe(4-Me)][Sar][hPhe(3-Cl-4-CF3)][NMeAla(4-thiazolyl)][Ac5c][NMeI][NMeD]-NMe2; lactam N-11)	0.02 to 0.05	0.00073
CC[C@H](C)[C@@H]1NC(=O)[C@H](CC(C)C)N(C)C(=O)C[C@@H](C(=O)N2CCCCC2)N(C)C(=O)[C@H](C(C)C)N(C)C(=O)C2(CCCC2)NC(=O)[C@@H]2CCCN2C(=O)[C@H](CCc2ccc(C(F)(F)F)c(Cl)c2)NC(=O)CN(C)C(=O)[C@H](Cc2cccc(C(F)(F)F)c2)N(C)C(=O)CN(C)C(=O)CN(C)C1=O [Compound 1555] ([NMeL]I[Sar][Sar][NMePhe(3-CF3)][Sar][hPhe(3-Cl-4-CF3)]P[Ac5c][NMeV][NMeD]-Piperidide; lactam N-11)	0.1 to 0.5	0.0061
CC[C@H](C)[C@@H]1NC(=O)[C@H](CC(C)C)N(C)C(=O)C[C@@H](C)N(C)C(=O)[C@H](C(C)C)N(C)C(=O)C2(CCCC2)NC(=O)[C@@H]2CCCN2C(=O)[C@H](CCc2ccc(C(F)(F)F)c(Cl)c2)NC(=O)CN(C)C(=O)[C@H](CC2CCCCC2)N(C)C(=O)CN(C)C(=O)CN(C)C1=O [Compound 608] (cyclo([Ac5c][NMeV][NMedβ3hAla][NMeL]I[Sar][Sar][NMeCha][Sar][hPhe(3-Cl-4-CF3)]P))	0.05 to 0.1	0.0059
CCC[C@H]1C(=O)N[C@@H]([C@@H](C)CC)C(=O)N(C)CC(=O)N(C)CC(=O)N(C)[C@@H](CC2CCCCC2)C(=O)N(C)CC(=O)N[C@@H](CCc2cc(F)c(C(F)(F)F)c(F)c2)C(=O)N2CCC[C@H]2C(=O)NC2(CCCC2)C(=O)N(C)[C@@H](C2CCCCC2)C(=O)N(C)[C@H](C(=O)N2CCCC2)CC(=O)N1C [Compound 1253] ([NMeNva]I[Sar][Sar][NMeCha][Sar][hPhe(3,5-F2-4-CF3)]P[Ac5c][NMeChg][NMeD]-Pyrrolidide; lactam N-11)	0.02 to 0.05	0.00081
CC[C@H](C)[C@@H]1NC(=O)[C@H](CC(C)C)N(C)C(=O)C[C@@H](C(=O)N2CCCCC2)N(C)C(=O)[C@H](CC2CCC2)N(C)C(=O)C2(CCCC2)NC(=O)[C@@H]2CCCN2C(=O)[C@H](CCc2ccc(C(F)(F)F)c(Cl)c2)NC(=O)CN(C)C(=O)[C@H](CC2CCCCC2)N(C)C(=O)CN(C)C(=O)CN(C)C1=O [Compound 968] ([NMeL]I[Sar][Sar][NMeCha][Sar][hPhe(3-Cl-4-CF3)]P[Ac5c][NMeCba][NMeD]-Piperidide; lactam N-11)	0.1 to 0.5	0.0031
CC[C@H](C)[C@@H]1NC(=O)[C@H](CC(C)C)N(C)C(=O)C[C@@H](C(=O)N2CCCCC2)N(C)C(=O)[C@H](CC2CCCC2)N(C)C(=O)C2(CCCC2)NC(=O)[C@@H]2CCCN2C(=O)[C@H](CCc2ccc(C(F)(F)F)c(Cl)c2)NC(=O)CN(C)C(=O)[C@H](CC2CCCCC2)N(C)C(=O)CN(C)C(=O)CN(C)C1=O [Compound 30] ([NMeL]I[Sar][Sar][NMeCha][Sar][hPhe(3-Cl-4-CF3)]P[Ac5c][NMeAla(cPent)][NMeD]-Piperidide; lactam N-11)	0.1 to 0.5	0.0046
